# Data taken from ChEMBL document CHEMBL1201862, “PubChem BioAssay data set” (2004).
# Calls of active or inactive are those of the source. Cut-off read from the data, not from the text of the source: actives have a measured IC50 and inactives only a lower limit.
# What was measured:
# Type in all cases: functional
# [1] = biological target: T1, Sentrin-specific protease 6 (Homo sapiens, UniProt Q9GZR1);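 note: Luminescence-based dose-response confirmatory assay of SENP6 inhibition, following up an ultra-high-throughput screen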
# T1 sequence (Q9GZR1 whole entry): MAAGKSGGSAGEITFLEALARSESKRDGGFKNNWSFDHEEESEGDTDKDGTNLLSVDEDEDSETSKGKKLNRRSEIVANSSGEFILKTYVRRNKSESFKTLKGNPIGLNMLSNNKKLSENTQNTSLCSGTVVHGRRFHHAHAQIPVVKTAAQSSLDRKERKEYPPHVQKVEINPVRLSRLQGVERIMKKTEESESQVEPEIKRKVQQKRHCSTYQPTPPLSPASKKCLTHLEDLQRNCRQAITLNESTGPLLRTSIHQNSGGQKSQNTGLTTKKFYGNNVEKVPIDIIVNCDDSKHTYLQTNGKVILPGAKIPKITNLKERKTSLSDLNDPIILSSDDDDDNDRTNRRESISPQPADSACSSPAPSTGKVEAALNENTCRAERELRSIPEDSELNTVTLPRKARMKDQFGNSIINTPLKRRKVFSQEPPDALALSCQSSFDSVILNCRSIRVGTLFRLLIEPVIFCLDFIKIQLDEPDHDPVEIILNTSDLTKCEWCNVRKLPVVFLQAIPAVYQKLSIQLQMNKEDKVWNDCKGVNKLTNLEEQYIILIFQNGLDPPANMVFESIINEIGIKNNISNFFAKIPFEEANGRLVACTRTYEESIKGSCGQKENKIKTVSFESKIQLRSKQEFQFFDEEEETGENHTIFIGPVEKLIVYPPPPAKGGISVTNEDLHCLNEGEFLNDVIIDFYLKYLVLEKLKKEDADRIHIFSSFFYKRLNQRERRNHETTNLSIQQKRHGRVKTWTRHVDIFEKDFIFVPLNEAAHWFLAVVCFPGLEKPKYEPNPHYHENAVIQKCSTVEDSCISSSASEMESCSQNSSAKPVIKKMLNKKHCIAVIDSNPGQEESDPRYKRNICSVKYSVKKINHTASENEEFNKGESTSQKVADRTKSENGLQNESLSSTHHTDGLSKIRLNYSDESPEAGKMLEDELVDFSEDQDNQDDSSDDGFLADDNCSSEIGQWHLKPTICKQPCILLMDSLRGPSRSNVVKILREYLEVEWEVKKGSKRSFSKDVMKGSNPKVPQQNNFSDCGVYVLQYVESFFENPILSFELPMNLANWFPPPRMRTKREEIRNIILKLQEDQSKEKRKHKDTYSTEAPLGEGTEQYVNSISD
# [2] = biological target: T2, Sentrin-specific protease 8 (Homo sapiens, UniProt Q96LD8);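 note: luminescence read-out of SENP8 inhibition, dose-response confirmation following an ultra-high-throughput screen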
# T2 sequence (Q96LD8 whole entry): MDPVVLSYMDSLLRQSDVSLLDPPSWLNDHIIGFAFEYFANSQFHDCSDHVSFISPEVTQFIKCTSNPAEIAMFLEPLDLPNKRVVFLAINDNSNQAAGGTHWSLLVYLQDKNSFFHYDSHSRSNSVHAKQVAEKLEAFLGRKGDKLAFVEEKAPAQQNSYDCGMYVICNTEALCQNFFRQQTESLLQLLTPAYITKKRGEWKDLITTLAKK
# [3] = biological target: T3, Apoptotic protease-activating factor 1 (Homo sapiens, UniProt O14727)
# T3 sequence (O14727 whole entry): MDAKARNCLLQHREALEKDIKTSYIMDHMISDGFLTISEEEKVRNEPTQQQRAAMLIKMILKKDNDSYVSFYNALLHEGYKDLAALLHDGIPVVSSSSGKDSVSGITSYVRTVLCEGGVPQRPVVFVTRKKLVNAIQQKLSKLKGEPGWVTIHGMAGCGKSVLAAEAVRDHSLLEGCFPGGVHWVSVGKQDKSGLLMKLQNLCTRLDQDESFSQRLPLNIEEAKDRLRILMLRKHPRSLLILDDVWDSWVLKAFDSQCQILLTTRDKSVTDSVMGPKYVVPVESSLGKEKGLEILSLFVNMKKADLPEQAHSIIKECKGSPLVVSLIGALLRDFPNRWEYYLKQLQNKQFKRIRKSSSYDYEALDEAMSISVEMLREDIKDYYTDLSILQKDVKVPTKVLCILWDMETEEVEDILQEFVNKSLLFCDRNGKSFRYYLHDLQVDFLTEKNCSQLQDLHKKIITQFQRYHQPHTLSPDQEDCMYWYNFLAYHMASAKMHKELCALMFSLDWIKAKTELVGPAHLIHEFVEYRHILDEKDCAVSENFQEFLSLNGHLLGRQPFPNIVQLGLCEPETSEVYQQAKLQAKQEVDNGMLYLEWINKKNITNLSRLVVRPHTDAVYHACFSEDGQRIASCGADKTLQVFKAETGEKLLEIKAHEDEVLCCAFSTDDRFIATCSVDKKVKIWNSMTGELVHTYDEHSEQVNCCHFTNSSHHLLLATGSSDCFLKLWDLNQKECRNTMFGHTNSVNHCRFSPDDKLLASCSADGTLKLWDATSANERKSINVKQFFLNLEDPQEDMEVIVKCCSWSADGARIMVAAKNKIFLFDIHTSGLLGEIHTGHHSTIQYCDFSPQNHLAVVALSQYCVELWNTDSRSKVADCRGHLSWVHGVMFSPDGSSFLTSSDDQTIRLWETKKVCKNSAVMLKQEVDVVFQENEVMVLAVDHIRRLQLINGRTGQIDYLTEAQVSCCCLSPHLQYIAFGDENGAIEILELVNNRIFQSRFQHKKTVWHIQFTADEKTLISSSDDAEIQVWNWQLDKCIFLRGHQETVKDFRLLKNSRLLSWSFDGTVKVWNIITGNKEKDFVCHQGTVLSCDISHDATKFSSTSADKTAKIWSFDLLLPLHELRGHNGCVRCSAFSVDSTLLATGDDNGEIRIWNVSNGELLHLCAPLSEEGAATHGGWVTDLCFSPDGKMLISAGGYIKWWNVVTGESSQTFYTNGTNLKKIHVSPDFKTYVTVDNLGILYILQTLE
Compound,IC50 [1],IC50 [2],IC50 [3]
O=C1C=C(Nc2ccccc2C(=O)O)c2ccccc2C1=O,2 µM (active),3.3 µM (active),3.84 µM (active)
COc1ccc(NC(=S)Nc2ccc3nsnc3c2)cc1,2.3 µM (active),2.74 µM (active),10.8 µM (active)
CC(C)(C)c1cc[n+](C2=C([N-]S(=O)(=O)c3ccccc3)C(=O)c3ccccc3C2=O)cc1,8.45 µM (active),13.6 µM (active),
O=C1C(=O)c2ccccc2C(O)=C1CCCCl,7.23 µM (active),14.4 µM (active),
